Patent publication US20160264616A1, “THERAPEUTIC COMPOUNDS AND METHODS” (priority 2015, published 2016)
Entries after “also recorded” stand apart in the source; their conditions may differ.

Legend:
[1] = tested on: RGS17FL:Gαo interaction in HEK293T cells; experiment: RGS localization assay, GFP-RGS17FL co-transfected with human Gαo in HEK293T cells; format: cell-based; conditions: 100 μM, 0-10 min
Protocol: HEK293T cells co-transfected with GFP-RGS17FL and human Gαo were treated with UI-5, UI-1590 and […] to determine if the compounds could disrupt the RGS17:Gαo interaction that could drive RGS17 to the membrane. […] To test this hypothesis, we constructed a GFP-RGS17 fusion protein with an N-terminal truncation, removing the cysteine-rich motif. […] As a negative control, we tested a known RGS4 inhibitor (CCG-50014) in this assay against RGS17ΔN (21). […] Finally, to ensure the localization was not due to the GFP tag, pAcGFP vector was co-transfected into HEK293T cells with hGαo. […] Cross-sectional fluorescence intensity analysis was used to quantify the intensity of signal at a cross section of the cell. Average signal at the membrane and in the cytoplasm were calculated and change in signal intensity was assessed between time zero and time final. […] Additionally, the control condition of CCG-50014 was subject to the same analyses as the lead compound.
Twenty four (24) hours prior to plating, assay plates were coated with 30 μl poly-D-lysine per well. Human Embryonic Kidney 293T cells (HEK293T) were plated in to 96 well tissue culture treated glass bottom view plates (Perkin Elmer, Part No. 6005430) at a density of 25K cells per well. […] Images were analyzed using NIH Image J software and Graphpad Prism 6. […]

RGS17 = biological target: T1, RGS17 (Homo sapiens, UniProt Q9UGC6); experiment: MALDI-TOF mass spectrometry for covalent adducts; conditions: two-fold molar excess of compound, one hour
T1 construct: This is the same RGS17 construct used in the high throughput screening campaign that is fully active despite the N-terminal truncation; made in house
T1 sequence (Q9UGC6 84-200 limits assumed): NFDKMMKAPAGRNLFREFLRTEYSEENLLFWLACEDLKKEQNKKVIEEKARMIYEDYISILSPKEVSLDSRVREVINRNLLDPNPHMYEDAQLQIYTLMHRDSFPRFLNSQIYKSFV
Protocol: Matrix-assisted laser desorption ionization time of flight (MALDI-TOF) mass spectrometry was employed to evaluate if lead compounds were capable of covalently modifying RGS17's RGS homology domain. Covalent adducts on RGS17 were not detected with any compounds using two-fold molar excess of compound when incubated for one hour with RGS17ΔN (FIG. 8). For all samples, the only species that were observed were singly and doubly charged unmodified, intact protein with mass-to-charge ratios of […], respectively.
Following treatment with compound, buffer was exchanged for 25 mM ammonium bicarbonate using an Amicon Ultra 10K 0.5 mL centrifugal filtration device (Millipore, Billerica, Mass.). Intact protein molecular weight was then assessed by matrix-assisted laser desorption/ionization-time of flight (MALDI-TOF) mass spectrometry. This was accomplished using a Bruker ultrafleXtreme in the linear TOF mode, employing 384-well Anchor chip targets (Billerica, Mass.). MALDI matrix reagents sinapinic acid and alpha-Cyano-4-hydroxycinnamic acid, purchased from Bruker, were reconstituted to 5 mg/ml in a 1:1 solution of acetonitrile and aqueous 0.1% formic acid (Billerica, Mass.). Samples in ammonium bicarbonate were diluted to 5 μM in aqueous 0.1% formic acid and introduced to target as a 1:1 solution of protein sample to MALDI matrix buffer. After crystal drying, samples were desalted on the target plate using aqueous 0.1% TFA. The laser was configured to emit pulses at 200 Hz at an optimal wavelength of 355 nm, and input energy of 500 μJ/pulse was attenuated 80-90%. Mass scale was calibrated using horse heart myoglobin, and 2000 shots were acquired per spectra.

Gαo = biological target: T2, Gαo (Homo sapiens, UniProt P09471); experiment: Differential scanning fluorimetry (DSF) with Gαo; format: binding; conditions: 50 μM compound
T2 construct: 6xHis; made in house; host or cells: BL21 (DE3) E. coli (printed 'B1-21 (DE3)')
T2 sequence (P09471 whole entry): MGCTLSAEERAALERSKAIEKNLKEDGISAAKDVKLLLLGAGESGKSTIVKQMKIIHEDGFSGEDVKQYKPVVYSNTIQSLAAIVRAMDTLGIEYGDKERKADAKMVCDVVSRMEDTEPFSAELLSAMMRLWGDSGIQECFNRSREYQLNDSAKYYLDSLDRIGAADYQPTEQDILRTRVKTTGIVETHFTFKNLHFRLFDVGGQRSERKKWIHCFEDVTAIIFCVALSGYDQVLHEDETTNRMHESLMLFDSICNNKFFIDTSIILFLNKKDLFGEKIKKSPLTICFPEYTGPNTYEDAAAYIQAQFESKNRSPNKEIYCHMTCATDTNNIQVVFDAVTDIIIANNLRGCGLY
Protocol: Further evaluation of the compounds designated UI-5, UI-1590, UI-1907 and UI-1956 was conducted using Differential Scanning Fluorimetry (DSF). This method allows for the rapid measurement of protein stability based on the melting temperature (Tm) of the target protein that is bound by ligand. A shift of Tm indicates a change in protein stability to melting due to stabilization added by the small molecule binding to the target protein. The four compounds were incubated at 50 μM with RGS17 or Gαo in the presence of Sypro Orange. In aqueous solution the fluorescence emission from the dye is very weak. […] The hydrophobic parts of a native, fully folded, protein in solution are generally buried within the protein and therefore not accessible to the dye resulting in little fluorescence emission. When the protein unfolds the dye molecules can bind to the exposed hydrophobic regions of the proteins, resulting in increased fluorescence. […]
Differential scanning fluorimetry experiments were carried out using white 384-well μltraAMP PCR plates (Sorenson BioSciences; Salt Lake City, Utah). […] All data was collected using the Roche LightCycler data acquisition ability and analyzed with Graphpad Prism 6.0, using first and second derivatives of the fluorescent melting curves.

SMILES	delocalization of full length RGS17FL [1]	covalent adducts on RGS17 (RGS17)	effect on Gαo thermal stability (DSF) (Gαo)
C[n+]1cc2c3c(ccc2c2ccc4cc5c(cc4c21)OCO5)OCO3 [UI-5]	remained at the membrane; also recorded: does not diffuse back in to the cytoplasm	did not form adducts	
CC(C)=CCC[C@]1(C)C=Cc2c(O)c3c(c(CC=C(C)C)c2O1)O[C@]12C(=C[C@@H]4C[C@H]1C(C)(C)O[C@@]2(C/C=C(/C)C(=O)O)C4=O)C3=O [UI-1907]			decrease the thermal stability of the Gαo subunit
O=c1c(-c2cc(O)c(O)c(O)c2)coc2cc(O)c(O)c(O)c12 [UI-1956, 5,6,7-trihydroxy-3-(3,4,5-trihydroxyphenyl)-4H-chromen-4-one]		did not form adducts	
CC1=C(O)C(=O)C=C2C1=CC=C1[C@@]2(C)CC[C@@]2(C)[C@@H]3C[C@](C)(C(=O)O)CC[C@]3(C)CC[C@]12C [UI-1590]		did not form adducts	
